Data published in patent publication US20260335294A1, “TREATING CONGENITAL DISORDERS OF GLYCOSYLATION” (Mayo Foundation for Medical Education and Research, priority 2022, published 2026).
“Also recorded” adds a separate entry of the source.

Columns and labels:
PMM2-CDG = conditions: Ligezka et al 2021; cited from earlier work
[1] = system: PMM2-CDG and healthy fibroblasts; experiment: Metabolomic profiling (LC/MS, GC/MS) of fibroblasts treated with epalrestat; format: cell-based, human
Method: Patient (P1-P6) and control fibroblasts were obtained by a skin punch biopsy. Fibroblasts were maintained in low glucose DMEM (Gibco) supplemented with 10% FBS in an incubator at 37 °C, 5% CO2, no longer than two months or until they reached passage 15 to avoid senescence. Routine mycoplasma testing was performed.
Briefly, 15,000 fibroblasts were plated in 1.5 mL DMEM (Gibco, 5.5 mM glucose, 2 mM glutamine, 10% FBS) per well in two 6-well plates. The medium change was performed on day 2 and day 4. On day 6, the medium was removed, cells were washed with ice-cold 0.9% NaCl (Sigma) (physiological solution) and 250 μL of extraction buffer (80% MeOH, IS) was added to the cells. Next, cells were scraped and the cell extracts transferred to 1.5 mL Eppendorf tubes and placed overnight at −80 °C. Next, samples were centrifuged at 15,000 rpm, 4 °C, 20 minutes. The supernatant was transferred to a vial for direct analysis by LC/MS, while 100 μL of 200 mM NaOH was added to the (protein) pellet. Pellets were incubated at 95 °C for 30 minutes after which they were centrifuged at 5,000 rpm, 4 °C, 10 minutes. Supernatant was used to determine protein concentration by BCA protein assay kit (Pierce).
Fibroblasts were plated in 6-well plates for LC/MS and T75 flasks for GC/MS analysis as described above. After 24 hours, medium was removed and cells washed with PBS. Then, DMEM containing 5.5 mM glucose, 2 mM glutamine, and 10% dialyzed FBS was added. Epalrestat was freshly prepared and fibroblasts were supplemented with 10 μM epalrestat daily. After 48 hours media was changed, and 48 hours after that, metabolites were extracted and measured by both LC/MS and GC/MS. Zebrafish embryos were genotyped at 2 days post fertilization (dpf), and were treated by adding the epalrestat (solubilized in DMSO) directly into the embryo media at 5 dpf. Control embryos were similarly treated with DMSO alone. Embryos were harvested for metabolic analyses 24 hours posttreatment. The final concentration of DMSO was equivalent between control and treatment, never exceeding 0.5%.
An ion-pairing liquid chromatography column (C18) was used to separate 10 μL of sample, after which the metabolites were resolved on a Thermo Fisher Q-Exactive Hybrid Quadrupole-Orbitrap Mass Spectrometer (negative ion mode). The ESI settings were as follows: 50 sheet gas flow rate, auxiliary gas flow rate 15, spray voltage of 4 kV, S-lens RF level of 60, and the capillary temperature at 350 °C. A full scan (resolution 140,000 at 200 m/z, AGC at 3 e6, 512 ms ion fill time, and 70-850 m/z scan range) was performed. The metabolites were identified according to their elution time and m/z ratios by using in-house metabolite standard library and El-Maven v0. 12.0/Polly™ Labeled LC-MS Workflow or Thermo Fisher Xcalibur software. The correction of naturally occurring carbon isotopes was also performed. Relative metabolite abundances were normalized to the internal standard and protein content.
For GC/MS measurements of hexose-P, hexose-bisphosphates, hexose and polyols, fibroblasts were cultured in a similar fashion as for LC/MS with the following adjustments: 1) an appropriate number of fibroblasts was plated in T75 flasks instead of 6-well plates to ensure the optimal amount of metabolite concentration necessary for GC/MS; 2) metabolites were extracted from cells with 2 mL 80% MeOH, IS and the supernatant was transferred to a fresh 2 mL Eppendorf tube. Standards containing metabolites of interest were prepared simultaneously and dried overnight together with cellular extracts by vacuum centrifugation at 4 °C. The following day, 20 μL of methoxyamine (MOX) (Sigma Aldrich) was added to the samples and they were incubated for 90 minutes at 37 °C. Next, 60 μL of N,O-bis(trimethylsilyl)trifluoroacetamide (TMS) (Sigma Aldrich) was added to the samples, which were then incubated at 60 °C for 30 minutes. Samples were kept overnight in a dry and cool place to allow further derivatization with TMS. […]

[2] = 10 μM daily, patient fibroblasts

With `CC(/C=C1\SC(=S)N(CC(=O)O)C1=O)=C\c1ccccc1` [epalrestat] as the compound, how does the glycosylation in vivo (PMM2-CDG) read?
The glycosylation in vivo was “improved glycosylation”.

What about the CMP-sialic acid abundance ([1]; 10 μM daily) of the same compound?
Its CMP-sialic acid abundance is “increased”.

And the UDP-HexNAc abundance ([1]; 10 μM daily)?
The UDP-HexNAc abundance was “increased”.

And the UDP-hexose abundance ([1]; 10 μM daily)?
Its UDP-hexose abundance is “increased”.

What about the glucose-1-P abundance ([1]; 10 μM daily) of the same compound?
Its glucose-1-P abundance is “increased”.

And the hexosamine-P abundance ([1]; 10 μM daily)?
The hexosamine-P abundance was “increased”.

What about the hexose-P abundance ([1]; 10 μM daily) of the same compound?
The hexose-P abundance was “increased”.

And the pentose-P abundance ([1]; 10 μM daily)?
Its pentose-P abundance is “increased”.

What about the sedoheptulose-7-P abundance ([1]; 10 μM daily) of the same compound?
The sedoheptulose-7-P abundance was “increased”.

And the “Glc-1,6-P2 abundance” value ([1]; 10 μM daily, PMM2-CDG fibroblasts)?
The value was “increased; also recorded: significantly increase”.

What about the mannitol abundance ([1]; 10 μM daily, intracellular) of the same compound?
The mannitol abundance was “reduced in the majority of patient fibroblasts”.

And the sorbitol abundance ([1]; 10 μM daily, intracellular)?
The sorbitol abundance was “significantly reduced; also recorded: significantly decreased”.

What about the overall polyol pool ([1]; 10 μM daily, patient and control cell lines, dialyzed FBS) of the same compound?
Its overall polyol pool is “reduced; also recorded: significantly decreased”.

What about the GDP-mannose abundance [1, 2] of the same compound?
The GDP-mannose abundance was “increased; also recorded: significantly increase”.

What about the man-1-P abundance [1, 2] of the same compound?
The man-1-P abundance was “increased; also recorded: significantly increase”.

What about the mannose-6-P abundance [1, 2] of the same compound?
Its mannose-6-P abundance is “increased; also recorded: significantly increase”.

And the “GDP-mannose levels vs controls” value ([1]; patient fibroblasts, epalrestat alone)?
The value was “never reached the same levels as the ones seen in controls”.
